The record followed here is US20130079345A1, “[…] ACTIVE DISUBSTITUTED TRIAZINE DERIVATIVES” (BAYER INTELLECTUAL PROPERTY GMBH, priority 2010, published 2013).

Assay [1] addresses T1, CDK7/CyclinH/Mat1 (Homo sapiens, UniProt P50613).
T1 construct: purchased Carna Biosciences
Kind of assay: LanthaScreen Eu Kinase Binding Assay, CDK7. The conditions noted are these: tracer 236, read-out: Affinity (Kd) CDK7. The gist of the method: (§1)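 TR-FRET competition binding with Alexa Fluor 647 tracer and Eu-anti-GST antibody; e.g. CDK2/Cyclin A 15 nM with tracer 236 60 nM (working solutions). Kinase buffer: HEPES 20 mM pH 8.0, MgCl2 10 mM, DTT 1 mM, Brij-35 0.01%; 8-point 1:3 series, 1 h at room temperature; Kd from sigmoidal dose-response curves.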

Assay [2] addresses T2, CDK9/Cyclin K (Homo sapiens, UniProt P50750).
T2 construct: purchased Invitrogen
Kind of assay: LanthaScreen Eu Kinase Binding Assay, CDK9/Cyclin K. The conditions noted are these: tracer 236, read-out: Affinity (Kd) CDK9/Cyclin K. The essentials:
as §1
On the technique in general: TR-FRET usually uses a lanthanide donor and a delayed reading to cut background.

For assay [3], the target named is T3, CDK9/Cyclin T1 (Homo sapiens, UniProt P50750).
T3 construct: purchased Invitrogen
T3 sequence (P50750 whole entry): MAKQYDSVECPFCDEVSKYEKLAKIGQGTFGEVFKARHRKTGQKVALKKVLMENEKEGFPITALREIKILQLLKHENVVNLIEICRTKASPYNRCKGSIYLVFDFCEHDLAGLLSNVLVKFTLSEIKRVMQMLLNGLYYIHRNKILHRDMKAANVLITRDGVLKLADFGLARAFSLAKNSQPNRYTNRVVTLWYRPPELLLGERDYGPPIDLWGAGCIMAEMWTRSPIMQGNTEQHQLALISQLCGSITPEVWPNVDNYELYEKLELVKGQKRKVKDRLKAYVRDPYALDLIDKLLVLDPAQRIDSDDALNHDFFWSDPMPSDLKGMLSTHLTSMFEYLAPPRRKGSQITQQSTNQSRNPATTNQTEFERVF
T3 sequence (O60563 whole entry partner): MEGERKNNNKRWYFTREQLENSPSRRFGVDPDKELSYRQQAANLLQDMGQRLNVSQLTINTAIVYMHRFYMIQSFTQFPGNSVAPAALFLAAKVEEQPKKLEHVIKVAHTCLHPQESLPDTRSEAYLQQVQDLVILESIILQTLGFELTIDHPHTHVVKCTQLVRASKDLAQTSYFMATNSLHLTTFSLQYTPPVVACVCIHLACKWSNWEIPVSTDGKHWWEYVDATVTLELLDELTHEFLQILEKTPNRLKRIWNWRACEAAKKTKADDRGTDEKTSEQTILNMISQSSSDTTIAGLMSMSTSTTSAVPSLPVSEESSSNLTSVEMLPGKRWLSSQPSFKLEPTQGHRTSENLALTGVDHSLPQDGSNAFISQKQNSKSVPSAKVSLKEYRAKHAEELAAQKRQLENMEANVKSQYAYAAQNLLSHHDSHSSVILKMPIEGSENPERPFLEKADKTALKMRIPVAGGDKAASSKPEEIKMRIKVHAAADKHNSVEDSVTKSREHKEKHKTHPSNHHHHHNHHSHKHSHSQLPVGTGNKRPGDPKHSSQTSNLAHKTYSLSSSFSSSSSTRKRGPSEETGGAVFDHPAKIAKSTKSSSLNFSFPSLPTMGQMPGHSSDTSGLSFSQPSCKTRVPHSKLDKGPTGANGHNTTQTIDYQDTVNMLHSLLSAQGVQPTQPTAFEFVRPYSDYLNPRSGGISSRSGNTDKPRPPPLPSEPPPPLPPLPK
Kind of assay: LanthaScreen Eu Kinase Binding Assay, CDK9/Cyclin T1. The conditions noted are these: tracer 236, read-out: Affinity (Kd) CDK9/Cyclin T1. The essentials: as §1

In assay [4] the test system is LPS-induced TNF alpha release in PBMCs. Kind of assay: TNF alpha release assay. The conditions noted are these: Homo sapiens, PBMC, 6 h, 1 μg/mL LPS. The class given is cell-based. How it is done: Freshly isolated peripheral blood mononuclear cells (PBMCs) were seeded in 96-well cell culture plates with 200,000 cells in 100 μl cell culture medium (DMEM cell culture medium+glutamine from PAN Biotech GmbH, Aidenbach, Germany) supplemented with 10% fetal calf serum (PAA Laboratories GmbH, Pasching, Austria) per well and incubated overnight at 37° C., 5% CO2. To each well, 100 μL cell culture medium with 2× concentrated test compounds diluted from 10 mM DMSO stocks, or 100 μL DMEM with 0.4% DMSO for control wells, was added. The compounds of general formula (I) summarized in Table 6 were used in this assay. After incubation for 1 h at 37° C., 5% CO2, cells were stimulated with 1 μg/mL LPS (Lipopolysaccharides, Sigma, catalog #L4391-1MG; 1 mg/ml stock solution), or left untreated for negative controls, and plates were incubated for 6 h at 37° C./5% CO2. The cell culture plates were centrifuged at 2000 rpm for 5 minutes, and supernatants were transferred to fresh 96-well polypropylene plates. 25 µL of supernatants were transferred into 96-well-plates of the human TNF alpha-tissue culture kit (Meso Scale Discovery, Gaithersburg, Md., USA), and manufacturer's instructions were followed for analysis of TNF alpha levels. Chemoluminescence was measured in the Mesoscale Sector Imager, and EC50 values were calculated with the software Excel Fit (IDBS, Guildford, UK) from 2-fold dilution series comprising at least 6 concentrations in duplicates.

The target of assay [5] is T4, CDK2/CyclinA (Homo sapiens, UniProt P24941).
T4 construct: purchased Proqinase
Kind of assay: Lance Ultra KinaSelect Assay, CDK2. The class given is biochemical. The conditions noted are these: ATP 3 μM, read-out: Inhibition (IC50) CDK2. How it is done: This protocol describes how the Lance Ultra KinaSelect Assay was performed to determine half maximal inhibitory concentration (IC50) of compounds of general formula (I) and CDK/Cyclin complexes. The principle behind this enzymatic assay is based upon the phosphorylation of the ULight-Peptide Substrat. It is detected by using a specific EU-labeled anti-phospho peptide antibody. The binding of the Eu-labeled anti-phospho peptide antibody to the phosphorylated U Light labeled peptide gives rise to a FRET-signal. Binding of an inhibitor to the kinase prevents phosphorylation of the ULight-MBP Substrat, resulting in a loss of FRET.
The compounds of general formula (I) summarized in Table 5 were diluted from a 10 mM DMSO stock solution 1:10 in a total volume of 15 μL DMSO. This compound predilution was then serial diluted 1:3 over 8 steps in DMSO and briefly spun down. Each compound solution was now diluted 1:20 in Enzymatic Buffer (HEPES: 50 mM, pH: 7.5; MgCl2: 10 mM; EGTA: 1 mM; DTT: 2 mM; Tween-20: 0.01%), mixed thoroughly and spun down. For every sample, 2 μL of the diluted compound were mixed with 6 μL CDK/Cyclin/Substrat solution and […] in a well of a small volume 384 well plate (Corning Incorporated, Corning, N.Y., USA; order no. 3673). […] For positive controls, in each well 2 μL of DMSO solution (1% final DMSO assay concentration) was mixed with 6 μL CDK/Cyclin/Substrat (appropriate final concentration see Table 3) and 2 μL Tracer ATP solution (appropriate final concentration see Table 3). Positive and negative controls were calculated from at least 8 different sample wells. The 384 well plates were mixed in a Teleshaker plate mixer (Beckman Coulter, Brea, Calif., USA) at 2000 rpm for 40 sec, and incubated for 1 h at room temperature. Before reading, 10 μL detection buffer (Lance Detection Buffer 1×; EDTA: […]; Eu-Anti-P-MBP: see Table 3) was added. The FRET signal was measured at 340 nm excitation, 665 nm and 615 nm emission (for the kinase tracer and LanthaScreen Eu-AB, respectively) with an Envision spectrophotometer (Perkin Elmer, Waltham, Mass., USA) with 50 μs delay and 300 μs integration time. IC50 values were determined from the sigmoidal dose response curves with the software Quattro Workflow (Quattro GmbH, Munich, Germany).

Structures can show the parent of a compound that is named as a salt.

T1 sequence (P50613 whole entry): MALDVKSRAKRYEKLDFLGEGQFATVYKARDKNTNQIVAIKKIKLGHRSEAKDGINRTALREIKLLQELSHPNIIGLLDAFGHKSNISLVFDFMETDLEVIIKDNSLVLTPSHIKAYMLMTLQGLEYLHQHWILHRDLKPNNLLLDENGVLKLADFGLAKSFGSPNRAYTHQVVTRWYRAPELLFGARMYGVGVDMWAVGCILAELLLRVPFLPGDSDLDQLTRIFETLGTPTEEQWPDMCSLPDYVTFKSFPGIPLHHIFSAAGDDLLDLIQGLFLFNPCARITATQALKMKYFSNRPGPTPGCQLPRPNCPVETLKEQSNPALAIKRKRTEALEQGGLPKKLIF
T1 sequence (P51946 whole entry partner): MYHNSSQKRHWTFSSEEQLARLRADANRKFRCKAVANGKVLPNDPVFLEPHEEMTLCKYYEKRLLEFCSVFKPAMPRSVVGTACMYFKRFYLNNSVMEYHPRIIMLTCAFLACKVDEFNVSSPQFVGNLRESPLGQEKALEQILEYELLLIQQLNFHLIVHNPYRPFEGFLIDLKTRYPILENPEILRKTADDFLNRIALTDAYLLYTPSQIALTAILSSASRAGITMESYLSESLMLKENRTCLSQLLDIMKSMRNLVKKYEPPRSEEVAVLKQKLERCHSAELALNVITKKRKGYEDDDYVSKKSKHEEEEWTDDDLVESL
T1 sequence (P51948 whole entry partner): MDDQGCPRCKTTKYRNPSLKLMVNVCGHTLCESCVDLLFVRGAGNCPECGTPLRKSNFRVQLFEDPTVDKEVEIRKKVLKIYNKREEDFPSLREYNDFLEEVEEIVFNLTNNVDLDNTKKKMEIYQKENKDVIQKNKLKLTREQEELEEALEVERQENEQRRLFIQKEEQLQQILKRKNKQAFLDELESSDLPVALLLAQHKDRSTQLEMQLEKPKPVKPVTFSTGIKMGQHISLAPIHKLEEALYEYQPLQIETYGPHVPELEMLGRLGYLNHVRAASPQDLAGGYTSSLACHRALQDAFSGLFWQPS
T2 sequence (P50750 whole entry): as the sequence (P50750 whole entry) above
T2 sequence (O75909 whole entry partner): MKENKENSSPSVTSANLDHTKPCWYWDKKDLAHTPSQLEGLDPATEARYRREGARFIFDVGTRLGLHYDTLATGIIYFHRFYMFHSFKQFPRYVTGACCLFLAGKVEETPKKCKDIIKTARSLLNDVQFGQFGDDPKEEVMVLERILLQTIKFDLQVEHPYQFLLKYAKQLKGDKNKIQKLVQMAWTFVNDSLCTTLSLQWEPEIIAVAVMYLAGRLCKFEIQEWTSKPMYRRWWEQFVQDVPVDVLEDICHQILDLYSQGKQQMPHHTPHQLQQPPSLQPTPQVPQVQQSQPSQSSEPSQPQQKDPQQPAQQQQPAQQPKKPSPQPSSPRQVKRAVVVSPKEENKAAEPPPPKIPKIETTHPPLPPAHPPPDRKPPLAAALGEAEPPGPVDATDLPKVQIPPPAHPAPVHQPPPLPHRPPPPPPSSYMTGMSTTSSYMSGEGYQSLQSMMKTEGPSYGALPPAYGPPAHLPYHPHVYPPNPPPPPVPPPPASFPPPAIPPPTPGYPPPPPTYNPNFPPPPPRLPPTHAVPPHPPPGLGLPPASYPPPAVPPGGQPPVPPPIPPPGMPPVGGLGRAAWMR

Broadly, the IC50 is the concentration that inhibits the measured activity by half. In the case of `COc1ccc(F)cc1-c1ncnc(Nc2cccc(CS(N)(=O)=O)c2)n1` [Compound B3, 3-[(4-(5-Fluoro-2-methoxyphenyl)-1,3,5-triazin-2-yl)amino]benzenemethanesulfonamide], the figures for the Kd in assay [1], in assay [2] and in assay [3] were over 10 µM, 0.005 µM and 0.016 µM, respectively. In assay [4], this molecule yielded a half-maximal inhibitory concentration (IC50) of 3.24 µM.
Regarding `COc1ccccc1-c1ncnc(Nc2ccccc2)n1` [Compound P1, 4-(2-Methoxyphenyl)-N-phenyl-1,3,5-triazine-2-amine], the Kd in assay [1] is over 30 µM; in assay [3] it was 0.126 µM. The molecule also showed an IC50 in assay [4] of 13.9 µM.
Regarding `COc1cc(F)ccc1-c1ncnc(Nc2cccc(CS(N)(=O)=O)c2)n1` [B2′, 1-(3-{[4-(4-fluoro-2-methoxyphenyl)-1,3,5-triazin-2-yl]amino}phenyl)methanesulfonamide hydrochloride], in assay [3], the Kd was determined as 0.0056 µM.
With `COc1cccc(F)c1-c1ncnc(Nc2cccc(CS(N)(=O)=O)c2)n1` [Compound B4, 3-[(4-(6-Fluoro-2-methoxyphenyl)-1,3,5-triazin-2-yl)amino]benzenemethanesulfonamide], the Kd in assay [1] was over 10 µM; in assay [2], 0.0209 µM; in assay [3], 0.054 µM. The concentration for half-maximal inhibition (IC50) in assay [5] is 1.44 µM; in assay [4] it was 6.53 µM.
For the molecule `COc1cc(F)ccc1-c1ncnc(Nc2cccc(CCS(N)(=O)=O)c2)n1` [Compound D2, 2-[3-((4-(4-Fluoro-2-methoxyphenyl)-1,3,5-triazin-2-yl)amino)phenyl]ethanesulfonamide], the Kd was over 10 µM in assay [1], 0.005 µM in assay [2] and 0.0095 µM in assay [3]. Besides, the IC50 in assay [5] amounted to 0.423 µM.
Consider `COc1ccccc1-c1ncnc(Nc2cccc(S(N)(=O)=O)c2)n1` [C1′, 3-[(4-(2-Methoxyphenyl)-1,3,5-triazin-2-yl)amino]benzenesulfonamide trifluoroacetic acid salt], for which the Kd in assay [1] is over 10 µM; in assay [2] it was 0.005 µM; in assay [3] it was under 0.005 µM. Further, the half-inhibitory concentration (IC50) in assay [5] is 0.781 µM; in assay [4], 0.5 µM.
In the case of `COc1cc(F)ccc1-c1ncnc(Nc2cccc(CS(N)(=O)=O)c2)n1` [B2″, 1-(3-{[4-(4-fluoro-2-methoxyphenyl)-1,3,5-triazin-2-yl]amino}phenyl)methanesulfonamide trifluoroacetic acid salt], the Kd stood at 0.005 µM in assay [2] and 0.0066 µM in assay [3]. In addition, the IC50 in assay [5] stood at 0.568 µM.
On to `NS(=O)(=O)Cc1cccc(Nc2ncnc(-c3ccccc3OCc3ccncc3)n2)c1` [Compound B16, 3-[(4-(2-((4-Pyridinyl)methoxy)phenyl)-1,3,5-triazin-2-yl)amino]benzenemethanesulfonamide], for which the Kd was over 10 µM in assay [1], 0.0057 µM in assay [2] and under 0.005 µM in assay [3]. Further, the IC50 in assay [5] is 1.07 µM.
For the molecule `NS(=O)(=O)Cc1cccc(Nc2ncnc(-c3ccccc3Oc3ccccc3)n2)c1` [Compound B14, 1-(3-{[4-(2-phenoxyphenyl)-1,3,5-triazin-2-yl]amino}phenyl)methanesulfonamide], the results for the Kd in assay [1], in assay [2] and in assay [3] were over 10 µM, 0.0264 µM and 0.0255 µM, respectively.
Turning to `COc1cc(Cl)ccc1-c1ncnc(Nc2cccc(CS(N)(=O)=O)c2)n1` [Compound B6, 3-[(4-(4-Chloro-2-methoxyphenyl)-1,3,5-triazin-2-yl)amino]benzenemethanesulfonamide], the Kd in assay [1] is over 10 µM; in assay [2], 0.0125 µM; in assay [3] it was 0.011 µM. Also, the 50% inhibitory concentration (IC50) in assay [5] was over 10 µM.
Take `CCCS(=O)(=O)Nc1cccc(Nc2ncnc(-c3ccccc3OC)n2)c1` [Compound L1, N-[3-((4-(2-Methoxyphenyl)-1,3,5-triazin-2-yl)amino)phenyl]-propanesulfonamide]: the Kd was over 30 µM in assay [1] and 0.0455 µM in assay [3]. In addition, the IC50 in assay [5] is over 10 µM; in assay [4], 2.41 µM.
Turning to `COc1ccccc1-c1ncnc(Nc2cccc([N+](=O)[O-])c2)n1` [Compound H1, 4-(2-Methoxyphenyl)-N-(3-nitrophenyl)-1,3,5-triazine-2-amine], the Kd in assay [1] is over 30 µM; in assay [2], 0.0158 µM; in assay [3], 0.0178 µM. Besides, the IC50 in assay [4] turned out to be 2.92 µM.
On to `CCOc1ccccc1-c1ncnc(Nc2cccc(CS(N)(=O)=O)c2)n1` [Compound B12, 3-[(4-(2-Ethoxyphenyl)-1,3,5-triazin-2-yl)amino]benzenemethanesulfonamide], for which the values for the Kd in assay [1], in assay [2] and in assay [3] were over 10 µM, 0.0111 µM and 0.01 µM, respectively. The IC50 in assay [5] stood at 2.93 µM.
Regarding `COc1ccccc1-c1ncnc(Nc2cccc(CS(N)(=O)=O)c2)n1` [B1′, 3-[(4-(2-Methoxyphenyl)-1,3,5-triazin-2-yl)amino]benzenemethanesulfonamide trifluoroacetic acid salt], the Kd in assay [2] worked out at 0.0487 µM; in assay [3] it was 0.0076 µM. For the same molecule, the results for the 50% inhibitory concentration (IC50) in assay [5] and in assay [4] were 3.08 µM and 2.71 µM, respectively.
As to `COc1ccccc1-c1ncnc(Nc2cccc(CS(N)(=O)=O)c2)n1` [Compound B1, 3-[(4-(2-Methoxyphenyl)-1,3,5-triazin-2-yl)amino]benzenemethanesulfonamide], the Kd in assay [1] is over 10 µM; in assay [3], 0.005 µM.
The corresponding values for `NS(=O)(=O)Cc1cccc(Nc2ncnc(-c3ccccc3OCc3ccccc3)n2)c1` [Compound B13, 3-[(4-(2-Benzyloxyphenyl)-1,3,5-triazin-2-yl)amino]benzenemethanesulfonamide] are over 10 µM and 0.005 µM.
As for `COc1cc(F)ccc1-c1ncnc(Nc2cccc(CS(N)(=O)=O)c2)n1` [Compound B2, 3-[(4-(4-Fluoro-2-methoxyphenyl)-1,3,5-triazin-2-yl)amino]benzenemethanesulfonamide], the results for the Kd in assay [1] and in assay [3] were over 10 µM and 0.005 µM, respectively. Also, the IC50 in assay [4] came out at 1.03 µM.
In the case of `COc1cnccc1-c1ncnc(Nc2cccc(CS(N)(=O)=O)c2)n1` [Compound B19, 3-[(4-(3-Methoxypyridin-4-yl)-1,3,5-triazin-2-yl)amino]benzenemethanesulfonamide], the Kd in assay [1] is over 10 µM; in assay [2], 0.0115 µM; in assay [3], 0.007 µM. In assay [4], this molecule returned a 50% inhibitory concentration (IC50) of 10.6 µM.
With `NS(=O)(=O)Cc1cccc(Nc2ncnc(-c3ccccc3OCc3ccccc3)n2)c1` [B13′, 3-[(4-(2-Benzyloxyphenyl)-1,3,5-triazin-2-yl)amino]benzenemethanesulfonamide trifluoroacetic acid salt], the Kd in assay [2] worked out at 0.005 µM; in assay [3], 0.0055 µM. Besides, the half-inhibitory concentration (IC50) was found to be 1.77 µM in assay [5] and 0.12 µM in assay [4].
